Measured values as given in patent US7741493B2, “Heterocyclic compounds as P2X7 ion channel blockers” (Aventis Pharmaceuticals Inc., priority 2003, dated 2010).
pIC50: −log10 of the molar value. Structures can show the parent of a compound that is named as a salt.

How the values were obtained:
[1] = test system: Wistar derived male rats; experiment: 2,4-dinitrobenzenesulfonic acid (DNBS) induced distal colitis; assay type: in vivo, rat; conditions: 30 mg/kg×7, oral administration
[2] = molecular target: T1, P2X7 (Homo sapiens, UniProt Q99572); experiment: YO-PRO-1 dye uptake assay in U373 cells stably expressing P2X7; assay type: cell-based; design: The complete open reading frame of human P2X7 was amplified from Incyte clone 148057; expressed in transfected cells; conditions: dye uptake through P2X7, U373 cells, 300 μM BzATP, 5 μM YO-PRO-1, test compounds 30 nM to 3 μM; read-out: IC50
T1 sequence (Q99572 1-595): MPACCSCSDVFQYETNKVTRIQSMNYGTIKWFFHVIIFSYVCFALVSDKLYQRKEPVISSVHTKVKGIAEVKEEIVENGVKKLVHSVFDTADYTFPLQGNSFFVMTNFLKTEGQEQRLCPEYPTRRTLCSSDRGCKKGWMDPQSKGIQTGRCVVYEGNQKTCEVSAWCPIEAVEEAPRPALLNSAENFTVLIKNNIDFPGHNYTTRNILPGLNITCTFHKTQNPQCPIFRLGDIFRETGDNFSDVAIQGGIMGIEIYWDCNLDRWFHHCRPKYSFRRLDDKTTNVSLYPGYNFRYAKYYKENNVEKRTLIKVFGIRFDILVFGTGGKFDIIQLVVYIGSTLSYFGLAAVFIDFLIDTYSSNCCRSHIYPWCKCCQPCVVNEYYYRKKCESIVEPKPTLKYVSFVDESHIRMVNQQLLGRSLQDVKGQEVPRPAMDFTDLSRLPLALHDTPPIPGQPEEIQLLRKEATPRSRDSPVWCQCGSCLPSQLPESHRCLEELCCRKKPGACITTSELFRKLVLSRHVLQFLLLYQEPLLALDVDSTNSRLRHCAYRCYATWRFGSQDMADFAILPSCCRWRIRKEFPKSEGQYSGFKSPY
How it was run: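 U373 cells stably expressing human P2X7 preincubated 20 min at 37° C. with compound (30 nM to 3 μM) in Mg/Ca-free HBSS. YO-PRO-1 (5 μM final) and BzATP (300 μM final) then added for 1.5 h at 37° C.; dye-uptake fluorescence compared with compound-free control.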

[3] = molecular target: T1, P2X7; experiment: BzATP-induced IL-1β secretion from human monocytes/macrophages activated by beta amyloid peptide 1-42 (ELISA); assay type: cell-based; design: Monocytes were isolated from peripheral blood mononuclear cells (PBMCs); endogenous in cells; host or cells: primary monocytes isolated from peripheral blood mononuclear cells
Method: Cell isolation: Monocytes were isolated from peripheral blood mononuclear cells (PBMCs) as follows. Whole blood was layered directly onto Histopak 1077-1 columns (Sigma Biochemicals) and centrifuged at 800×g for 15 minutes. The PBMC band of cells was removed to a fresh 50 ml culture tube and diluted 1:1 with wash buffer (Phosphate buffered saline, pH 7.4 containing 2 mM EDTA and 5 mg/ml BSA) followed by centrifugation at 800×g for 5 minutes. Cells were then washed by sequential resuspension of the cell pellet in wash buffer and centrifugation at 600×g for 5 minutes. The wash process was repeated until the supernatant was clear of contaminating platelets (5 to 6 washes). Monocytes were then purified from the PBMCs by negative selection using a monocyte isolation kit (Miltenyi Biotec, Inc) that contains antibodies to non-monocytic cells, running the cells over a magnetic column to remove antibody-bound cells, and collecting the flow through volume of monocytes. Monocytes were washed once with wash buffer and seeded at 10E5 cells per well in 100 μl serum-free RPMI 1640 in 96-well plates and incubated for 1 hour at 37° C. in a 5% CO2/95% humidified tissue culture incubator. After 1 hour, the medium was replaced with 100 μl complete culture medium (RPMI 1640, 10% human serum-type AB (heat inactivated), 25 mM HEPES, 2 mM glutamine, 50 U/ml each of penicillin and streptomycin) and incubated overnight (16 hours). Dosing regimen: The next day, the culture medium was replaced with 100 μl fresh complete culture medium in the absence or presence of human beta amyloid 1-42 peptide (5 μM) and incubated at 37° C. in a 5% CO2/95% humidified tissue culture incubator for 5 hours. Medium was then removed and discarded. Each well was washed once with Hanks buffered saline (HBSS) containing 1 mM CaCl2 followed by the addition of 80 μl of HBSS/CaCl2. […] Medium was then removed to new 96-well plates for storage at −70° C. until the IL-1β content was quantitated by ELISA (from R&D Systems). The cells were washed once with HBSS/CaCl2 followed by lysing the cells with 100 μl ice cold lysis buffer (100 mM Tris, pH 7.6, 1% triton X-100, and 1 tablet per 30 ml Complete TM protease inhibitor from Roche Biochemicals, Inc). Cell lysates were stored at −70° C. until the IL-1β was quantitated by ELISA. The results thus obtained for percent inhibition of BzATP-induced IL-1β secretion using a few of the P2X-7 compounds of the present invention are summarized in Table 7.

[4] = test system: Long Evans derived male rats; experiment: carrageenan induced paw edema; assay type: in vivo, rat; conditions: 150 mg/kg, PO
[5] = BzATP (300 μM)-induced IL-1β secretion, human monocytes primed with beta amyloid 1-42 (5 μM), read-out: IC50

| Compound | pIC50 [3, 5] | pIC50 [2] | other results |
| --- | --- | --- | --- |
| O=C(O)c1cc(/N=N/c2ccc(S(=O)(=O)Nc3ccccn3)cc2)ccc1O [sulfasalazine] |  |  | inhibition of the inflammation [1]: 37% |
| CC(=O)Oc1ccccc1C(=O)O [aspirin] |  |  | inhibition of inflammation (hind paw edema) [4]: 38% |
| Fc1cccc(CNC2=N[C@@H](c3cccc(F)c3)[C@@H](c3cccc(F)c3)N2)c1 [[cis-4,5-bis-(3-Fluorophenyl)-4,5-dihydro-1H-imidazol-2-yl]-(3-fluorobenzyl)amine hydrochloride] |  | 7.38 | pIC50 [3]: 5.89 |

Now from value to compound, other results behind:

| pIC50 [3, 5] | Compound | pIC50 [2] | other results |
| --- | --- | --- | --- |
| 6.80 | Fc1ccc(CC2=N[C@@H](c3ccccc3)[C@@H](c3ccccc3)N2)cc1Cl [trifluoroacetate] | 7.89 |  |
| 6.16 | Fc1ccc(CNC2=NC(c3ccccc3)C(c3ccccc3)N2)cc1 (centres unmarked) [hydrochloride] |  |  |
| 6.75 | CC(C)(CC1=NC(c2ccccc2)C(c2ccccc2)N1)c1ccccc1 (centres unmarked) [trifluoroacetate] |  |  |
